Assay [1] can be described thus: Sensory effects of compounds of formula I in chicken broth (triangle test, trained panel). As to conditions: for kokumi intensity (0-5): broth without additives = 2. On the procedure: (§1) Unless otherwise indicated, all sensory tests are triangle tests and are performed according to the guidelines in “Amtliche Sammlung von Untersuchungsverfahren nach § 35 LMBG (Lebensmittel-und Bedarfsgegenständegesetz)”; L 00.90 7 , Untersuchung von Lebensmitteln , Sensorische Prüfverfahren, Dreiecksprüfung (Übernahme der gleichnahmigen Deutschen Norm DIN ISO 4120, Ausgabe Januar 1995), as follows:
(§2) The sensory panel is trained to evaluate the taste of aqueous solutions (4 ml each) of the following standard taste compounds by using a triangle test as described in the literature (Wieser and Belitz, Z. Lebensm. Unters. Forsch., 1975, 159, 65-72): sucrose (40 mmol/L) for sweet taste; citric acid (5 mmol/L) for sour taste; NaCl (12 mmol/L) for salty taste; caffeine (2 mmol/L) for bitter taste; and monosodium glutamate (MSG; 6 mmol/L) for umami taste. For kokumi taste, a solution of glutathione (10 mmol/L) in diluted chicken broth concentrate (Gourmet Bouillon Huhn, Maggi, Singen, Germany; 3 g/100 g bottled water (Evian®)) is prepared and compared to the taste of chicken broth with no glutathione added. All sensory analyses are performed in a sensory panel room at 22-25° C. over three different sessions by a trained panel of 8 to 10 individuals.
(§3) For recording the taste profiles, samples are prepared as indicated in the examples below. Taste profiles of samples are determined in a triangle test in three different sessions. Panellists refrain from eating or drinking for at least 1 hour prior to the session. At the start of the session and before each trial, the subject rinsed with water and expectorated. The participants receive a set of two blanks and one taste sample. Liquid samples are swirled around in the mouth briefly and expectorated. Solid samples are chewed for 20 seconds and then expectorated. […] Each sample with additive is compared to two reference samples without additives.
Sensory tests (triangle test) are performed at least three times for each compound using sensory panels of different individuals to confirm results.
Chicken Broth is prepared by dilution of 3 g chicken broth concentrate (Gourmet Bouillon Huhn; Maggi, Singen, Germany) with 100 ml water (Evian). Additives are added as specified in table below.
The pH-value of all samples is adjusted to 6.5 using formic acid (0.1 mol/L) or sodium hydroxide (0.1 mol/L).
Flavour intensity (onion or kokumi) is rated from 0-5 according to a scale from 0 to 5 (with 5 most intensive). GSH (5 mmol/L) is determined to have an kokumi intensity of 3 in all tests.
The additive is added to a consumable and the sample is homogenised. The samples are presented to the sensory panel directly after homogenisation.
For each sample, flavour intensity is rated and panelists are asked to describe sensory characteristics.

Assay [2] is described as follows: Sensory effects of compounds of formula I in water (triangle test, trained panel). To be noted: additive 5 mmol/L. The method, then:
as §1, §2, §3

Assay [3] can be described thus: Onion flavour compounds in mushroom cream soup (sensory panel). To be noted: mushroom cream soup pH 6.0, additive 1 mmol/L. The method, then:
as §1, §3
Cys-O—C2H5and γ-Glu-Cys-O—C2H5are added to mushroom cream soup (Unox, Unilever Bestfoods, Germany), pH 6.0 in a concentration of 1 mmol/L samples are evaluated directly after homogenisation.

The nature of assay [4]: Onion flavour compounds in barbecue sauce (sensory panel). To be noted: barbecue sauce pH 3.3, additive 5 mmol/L. The method, then:
as §1, §3
Onion flavour compounds as indicated in the table below are added to barbecue sauce (Kraft Foods, Germany), pH 3.3.

The nature of assay [5]: Onion flavour compounds in tomato soup (sensory panel). On the procedure:
as §1, §3
Cys-O—C2H5 and γ-Glu-Cys-O—C2H5 are added to tomato soup (Unox, Unilever Bestfoods, Germany, pH 4,5), in the concentrations indicated below.

Setting [6] is: chicken broth pH 6.5, additive 5 mmol/L.
The mark [7] stands for this setting: chicken broth pH 6.5, additive 5 mmol/L, scale 0 to 5 (5 most intensive).
The mark [8] stands for this setting: chicken broth pH 6.5, additive 5 mmol/L, scale 0 to 5.
Setting [9] is: chicken broth pH 6.5, additive 10 mmol/L (positive control).
Setting [10] is: tomato soup pH 4,5, additive 1 mmol/L.
[11] abbreviates: tomato soup pH 4,5, additive 5 mmol/L.
Setting [12] is: chicken broth pH 6.5, additive 30 mmol/L (positive control).

“Also recorded” adds a separate entry of the source.

Consider `N[C@@H](CCC(=O)N[C@@H](CS)C(=O)NCC(=O)O)C(=O)O` [GSH, reduced form, glutathione, reference compound], for which the Sensory descriptors entry in assay [1] (setting [6]) was “increased kokumi taste”. Further, the “onion flavour intensity (0-5)” value in assay [1] (setting [7]) was 0. Moreover, the “kokumi intensity (0-5)” value in assay [1] (setting [8]) turned out to be 3.

In the case of `N[C@@H](CCC(=O)N[C@@H](CS)C(=O)O)C(=O)O` [γ-Glu-Cys-OH, reference compound], the Sensory descriptors entry in assay [1] (setting [6]) is on record as “increased kokumi taste”. Further, the “onion flavour intensity (0-5)” value in assay [1] (setting [7]) turned out to be 0. For the same compound, the “kokumi intensity (0-5)” value in assay [1] (setting [8]) is given as 4. In addition, in assay [2], the Onion flavour intensity was found to be 0 and the Sensory description entry is reported as “tasteless”.

As for `CCOC(=O)CNC(=O)[C@H](CS)NC(=O)CC[C@H](N)C(=O)O` [γ-Glu-Cys-Gly-O—C2H5], in assay [2], the Onion flavour intensity is on record as 0 and the Sensory description entry is “intensely bitter”.

For the compound `CSCC[C@H](N)C(=O)O` [Met-OH], in assay [2], the Onion flavour intensity is 0 and the Sensory description result is “sweet”.

In the case of γ-Glu-Cys(S—C2H5)-Gly-O—C2H5, in assay [2], the Onion flavour intensity came to 0 and the Sensory description entry was “intensely bitter”.

`N[C@@H](CCC(=O)O)C(=O)[O-].[Na+]` [MSG, mono sodium glutamate, reference compound]: in assay [1] (setting [9]), the Sensory descriptors result is recorded as “increased umami taste”, the “onion flavour intensity (0-5)” value was 0 and the “kokumi intensity (0-5)” value worked out at 2.

`COC(=O)[C@@H](N)CO` [Ser-O—CH3]: in assay [2], the Onion flavour intensity was 0 and the Sensory description result is listed as “slightly sweet”.

Take `CCOC(=O)[C@@H](N)CS` [Cys-O—C2H5]: the “Test results (sensory description versus reference)” value was “Preferred, onion like flavour” in assay [3]; “Preferred, onion like flavour, meaty” in assay [4]; “onion like and slightly meaty flavour; also recorded: Preferred, onion like flavour, slightly meaty” in assay [5] (setting [10]); “onion like and slightly meaty flavour” in assay [5] (setting [11]). Further, the “panelists indicating an onion like flavour” value in assay [3] is 7 out of 8. Moreover, the Sensory descriptors result in assay [1] (setting [6]) is reported as “onion flavour”. Also, the “onion flavour intensity (0-5)” value in assay [1] (setting [7]) is listed as 3. The “kokumi intensity (0-5)” value in assay [1] (setting [8]) is listed as 2. In assay [2], this compound gave an Onion flavour intensity of 3.5. Moreover, the Sensory description result in assay [2] is “onion flavour”.

Turning to `[Cl-].[Na+]` [NaCl, reference compound], in assay [1] (setting [12]), the Sensory descriptors entry was “increased salt taste”, the “onion flavour intensity (0-5)” value came out at 0 and the “kokumi intensity (0-5)” value came out at 2.

On to `CCOC(=O)[C@@H](N)CO` [Ser-O—C2H5], for which, in assay [2], the Onion flavour intensity was found to be 0 and the Sensory description entry is recorded as “slightly sweet”.

Turning to `CCOC(=O)[C@@H](N)CCSC` [Met-O—C2H5], the Sensory descriptors entry in assay [1] (setting [6]) is “slight onion flavour”. Also, the “onion flavour intensity (0-5)” value in assay [1] (setting [7]) is recorded as 1.5. For the same compound, the “kokumi intensity (0-5)” value in assay [1] (setting [8]) was 2. In assay [2], the Onion flavour intensity is reported as 1.5 and the Sensory description entry is “slight onion flavour”.

On to `COC(=O)[C@@H](N)CCSC` [Met-O—CH3], for which, in assay [1] (setting [6]), the Sensory descriptors result is listed as “slight onion flavour”. Further, the “onion flavour intensity (0-5)” value in assay [1] (setting [7]) is given as 0.5. Also, the “kokumi intensity (0-5)” value in assay [1] (setting [8]) turned out to be 2. Also, in assay [2], the Onion flavour intensity was 1 and the Sensory description result is listed as “slight onion flavour”.

For the compound `N[C@@H](CS)C(=O)O` [Cys-OH, reference compound], the Sensory descriptors result in assay [1] (setting [6]) is reported as “increased sweetness”. For the same compound, the “onion flavour intensity (0-5)” value in assay [1] (setting [7]) stood at 0. The “kokumi intensity (0-5)” value in assay [1] (setting [8]) was found to be 2. Further, in assay [2], the Onion flavour intensity worked out at 0 and the Sensory description result is “sweet”.

Take `COC(=O)[C@@H](N)CS` [Cys-O—CH3]: in assay [1] (setting [6]), the Sensory descriptors entry is listed as “onion flavour”. The “onion flavour intensity (0-5)” value in assay [1] (setting [7]) is recorded as 2. The “kokumi intensity (0-5)” value in assay [1] (setting [8]) is on record as 2. Besides, in assay [2], the Onion flavour intensity is reported as 2.5 and the Sensory description entry was “onion flavour”.

In the case of `CCOC(=O)[C@H](CS)NC(=O)CC[C@H](N)C(=O)O` [γ-Glu-Cys-O—C2H5], the “Test results (sensory description versus reference)” value in assay [3] is on record as “the observed effect is higher; also recorded: Preferred, strong onion like flavour, meaty,”; in assay [4], “more roasty; also recorded: kokumi taste; also recorded: Preferred, strong onion like flavour, meaty,”; in assay [5] (setting [10]), “more roasty; also recorded: Preferred, onion like flavour, meaty, roasty, slightly”; in assay [5] (setting [11]), “Preferred, strong onion like flavour, meaty, roasty, more”. In addition, the Sensory descriptors entry in assay [1] (setting [6]) is recorded as “strong onion flavour, increased”. In addition, the “onion flavour intensity (0-5)” value in assay [1] (setting [7]) was determined as 4. Moreover, in assay [1] (setting [8]), the “kokumi intensity (0-5)” value is 3.5. Also, the Onion flavour intensity in assay [2] is listed as 4.5. Besides, in assay [2], the Sensory description result was “onion flavour”. The “Panel description in text (difference, preference, kokumi taste)” value in assay [5] (tomato soup pH 4,5, samples with 1 mmol/L and 5 mmol/L taken together) is on record as “kokumi taste”.

The values above are taken from US20080268123A1, “Onion Flavoured Compounds and Use” (GIVAUDAN SA, priority 2005, published 2008).
